# Reference: ChEMBL document CHEMBL1201862, “PubChem BioAssay data set” (2004)
#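 Values below derive from 48-hour exposures of cells grown in 96-well plates, with endpoints linearly interpolated between the two concentrations bracketing the appropriate inhibition level. GI50: concentration for 50% inhibition of growth.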 Active and inactive are the calls of the source. No stated cut-off is given here; in the data, active = GI50 up to about 1.1 µM and inactive = higher.
# Columns and labels:
# Experiment in all cases: growth of human tumour cells (NCI), 48 h
# CCRF-CEM = system: CCRF-CEM
# COLO 205 = system: COLO 205
# HCT-116 = system: HCT-116
# HCT-15 = system: HCT-15
# HOP-92 = system: HOP-92
# IGROV-1 = system: IGROV-1
# K562 = system: K562
# LOX IMVI = system: LOX IMVI
# MOLT-4 = system: MOLT-4
# Malme-3M = system: Malme-3M
# NCI-H23 = system: NCI-H23
# OVCAR-4 = system: OVCAR-4
# SK-MEL-2 = system: SK-MEL-2
# SK-MEL-5 = system: SK-MEL-5
# SN12C = system: SN12C
# SW-620 = system: SW-620
# U-251 = system: U-251
# UACC-62 = system: UACC-62
# SR = system: SR
Structure (SMILES),GI50 (CCRF-CEM),GI50 (COLO 205),GI50 (HCT-116),GI50 (HCT-15) [µM],GI50 (HOP-92),GI50 (IGROV-1),GI50 (K562),GI50 (LOX IMVI),GI50 (MOLT-4),GI50 (Malme-3M),GI50 (NCI-H23),GI50 (OVCAR-4),GI50 (SK-MEL-2),GI50 (SK-MEL-5),GI50 (SN12C),GI50 (SW-620),GI50 (U-251),GI50 (UACC-62),GI50 (SR)
CC(=O)Nc1ccccc1Sc1ccccc1,> 100 µM (inactive),> 100 µM (inactive),> 100 µM (inactive),> 100,69.8 µM (inactive),> 100 µM (inactive),> 100 µM (inactive),> 100 µM (inactive),> 100 µM (inactive),> 100 µM (inactive),> 100 µM (inactive),> 100 µM (inactive),> 100 µM (inactive),> 100 µM (inactive),> 100 µM (inactive),> 100 µM (inactive),> 100 µM (inactive),> 100 µM (inactive),
Cn1nc(-c2ccccc2)c(C(=O)/C=C/c2ccc(Cl)cc2)c(N2CCCC2)c1=O,2.46 µM (inactive),2.11 µM (inactive),2.56 µM (inactive),3.75,1.67 µM (inactive),6.31 µM (inactive),2.66 µM (inactive),3.8 µM (inactive),2.38 µM (inactive),,2.89 µM (inactive),,,5.46 µM (inactive),5.94 µM (inactive),4.02 µM (inactive),4.27 µM (inactive),4.55 µM (inactive),
COC1(C)CNCC(C)(C)NC(=O)C(C)(OC)CNCC(C)(C)NC1=O (stereo not given),> 100 µM (inactive),> 100 µM (inactive),> 100 µM (inactive),> 100,> 100 µM (inactive),> 100 µM (inactive),> 100 µM (inactive),> 100 µM (inactive),> 100 µM (inactive),> 100 µM (inactive),> 100 µM (inactive),> 100 µM (inactive),> 100 µM (inactive),> 100 µM (inactive),> 100 µM (inactive),49.4 µM (inactive),> 100 µM (inactive),> 100 µM (inactive),
C=CN1C(=O)[C@H](Oc2ccccc2)[C@@H]1c1ccccc1,46.8 µM (inactive),,24.9 µM (inactive),41.1,,> 100 µM (inactive),36.3 µM (inactive),,36.6 µM (inactive),63.2 µM (inactive),21.7 µM (inactive),,12.9 µM (inactive),31.5 µM (inactive),32.7 µM (inactive),33.3 µM (inactive),36.4 µM (inactive),,40.3 µM (inactive)
Cc1ccc(NC(=O)CCc2n[nH]c(=S)o2)cc1,62.8 µM (inactive),> 100 µM (inactive),> 100 µM (inactive),> 100,> 100 µM (inactive),> 100 µM (inactive),44.6 µM (inactive),> 100 µM (inactive),> 100 µM (inactive),> 100 µM (inactive),> 100 µM (inactive),> 100 µM (inactive),,> 100 µM (inactive),> 100 µM (inactive),> 100 µM (inactive),> 100 µM (inactive),> 86.3 µM (inactive),> 100 µM (inactive)
CCN(CC)c1ccc(/N=N/c2ccc(-c3nc4cccnc4s3)cc2)cc1,> 100 µM (inactive),> 100 µM (inactive),> 100 µM (inactive),,> 100 µM (inactive),> 100 µM (inactive),> 100 µM (inactive),,> 100 µM (inactive),> 100 µM (inactive),> 100 µM (inactive),43.3 µM (inactive),> 100 µM (inactive),> 100 µM (inactive),> 100 µM (inactive),> 100 µM (inactive),> 100 µM (inactive),97.9 µM (inactive),> 100 µM (inactive)
CN(C)CC/C(=N\Nc1ccc(Cl)cc1Cl)c1ccccc1,12.7 µM (inactive),15.1 µM (inactive),13.8 µM (inactive),12.4,,10.1 µM (inactive),14.3 µM (inactive),14.8 µM (inactive),5.73 µM (inactive),23.3 µM (inactive),17 µM (inactive),> 10 µM (inactive),14.5 µM (inactive),14.6 µM (inactive),12.6 µM (inactive),16 µM (inactive),12.4 µM (inactive),14.6 µM (inactive),12 µM (inactive)
N#CCCCCCOCCOCCOCCOCCOCCCCCC#N,> 100 µM (inactive),> 100 µM (inactive),> 100 µM (inactive),> 100,,> 100 µM (inactive),68.5 µM (inactive),> 100 µM (inactive),> 100 µM (inactive),> 100 µM (inactive),> 100 µM (inactive),> 100 µM (inactive),> 100 µM (inactive),> 100 µM (inactive),> 100 µM (inactive),> 100 µM (inactive),> 100 µM (inactive),68.7 µM (inactive),> 100 µM (inactive)
Cn1c(=O)c(C(=O)NC(=O)NCCCCCOC(=O)CCCCCCCCCCC(=O)OCCCCCNC(=O)NC(=O)c2cn(Cc3ccccc3)c(=O)n(C)c2=O)cn(Cc2ccccc2)c1=O,> 100 µM (inactive),> 100 µM (inactive),> 100 µM (inactive),> 100,71.4 µM (inactive),> 100 µM (inactive),> 100 µM (inactive),> 100 µM (inactive),,> 100 µM (inactive),> 100 µM (inactive),> 100 µM (inactive),> 100 µM (inactive),> 100 µM (inactive),> 100 µM (inactive),> 100 µM (inactive),> 100 µM (inactive),> 100 µM (inactive),
O=C1c2ccccc2C(=O)N1C/C=N/NS(=O)(=O)c1cccc([N+](=O)[O-])c1,> 100 µM (inactive),> 100 µM (inactive),> 100 µM (inactive),> 100,,> 100 µM (inactive),> 100 µM (inactive),> 100 µM (inactive),> 100 µM (inactive),> 100 µM (inactive),> 100 µM (inactive),> 100 µM (inactive),> 100 µM (inactive),> 100 µM (inactive),> 100 µM (inactive),> 100 µM (inactive),> 100 µM (inactive),> 100 µM (inactive),> 100 µM (inactive)
CCC(=O)c1c(NOC2OC(COC(C)=O)C(OC(C)=O)C(OC(C)=O)C2OC(C)=O)nc(OC)n(C)c1=O (stereo not given),> 100 µM (inactive),> 100 µM (inactive),> 100 µM (inactive),> 100,,> 100 µM (inactive),> 100 µM (inactive),> 100 µM (inactive),> 100 µM (inactive),,> 100 µM (inactive),> 100 µM (inactive),> 100 µM (inactive),> 100 µM (inactive),> 100 µM (inactive),> 100 µM (inactive),> 100 µM (inactive),> 100 µM (inactive),> 100 µM (inactive)
CCOC(=O)NC(=O)c1cn(CCCOC(=O)NCCCCCCNC(=O)OCCCn2cc(C(=O)NC(=O)OCC)c(=O)[nH]c2=O)c(=O)[nH]c1=O,5.4 µM (inactive),19.8 µM (inactive),35.1 µM (inactive),28.2,24.3 µM (inactive),41.9 µM (inactive),7.67 µM (inactive),43.1 µM (inactive),36.3 µM (inactive),,> 10 µM (inactive),7.4 µM (inactive),,37.5 µM (inactive),47.6 µM (inactive),26 µM (inactive),18.1 µM (inactive),20.1 µM (inactive),
CC(=O)CC(=O)CCC(=O)Nc1cccc(C(F)(F)F)c1,> 100 µM (inactive),> 100 µM (inactive),> 100 µM (inactive),> 100,> 100 µM (inactive),> 100 µM (inactive),> 100 µM (inactive),> 100 µM (inactive),> 100 µM (inactive),> 100 µM (inactive),> 100 µM (inactive),> 100 µM (inactive),> 100 µM (inactive),> 100 µM (inactive),> 100 µM (inactive),> 100 µM (inactive),> 100 µM (inactive),> 100 µM (inactive),
Cn1cc(NC(=O)c2cc(NC(=O)CCCCCC(=O)Nc3cc(C(=O)Nc4cc(C(=O)NCCC(=N)N)n(C)c4)n(C)c3)cn2C)cc1C(=O)NCCC(=N)N,> 100 µM (inactive),> 100 µM (inactive),67.1 µM (inactive),> 100,> 100 µM (inactive),98.6 µM (inactive),83.6 µM (inactive),46.1 µM (inactive),,9.64 µM (inactive),> 100 µM (inactive),> 100 µM (inactive),,51.3 µM (inactive),> 100 µM (inactive),> 100 µM (inactive),> 100 µM (inactive),64.9 µM (inactive),
N#C/C(=C/c1cccc2ccccc12)C(=O)c1ccccc1,16.6 µM (inactive),,18.5 µM (inactive),19,,24.3 µM (inactive),> 10 µM (inactive),19.5 µM (inactive),14.7 µM (inactive),21.5 µM (inactive),17.8 µM (inactive),> 100 µM (inactive),18.9 µM (inactive),> 10 µM (inactive),33.2 µM (inactive),16.8 µM (inactive),19 µM (inactive),18.3 µM (inactive),26.9 µM (inactive)
O=c1cccccc1O.O=c1cccccc1O.O=c1cccccc1O.[SiH4],2.64 µM (inactive),11 µM (inactive),13.6 µM (inactive),,37.9 µM (inactive),12.8 µM (inactive),6.87 µM (inactive),,5.74 µM (inactive),54.6 µM (inactive),16.5 µM (inactive),11.9 µM (inactive),,24.8 µM (inactive),25.3 µM (inactive),10.4 µM (inactive),21.3 µM (inactive),0.822 µM (active),
